Earlier results on one compound are cited in patent publication US20240016826A1, “COMPOSITION, PHARMACEUTICAL COMPOSITION, USE OF A STABLE TOPICAL COMPOSITION COMPRISING A NANOEMULSION AND OF AT LEAST ONE ANTILEISHMANIAL COMPOUND, AND METHOD FOR THE TREATMENT OF CUTANEOUS LEISHMANIASIS” (priority 2020, published 2024).

The structures appear in SMILES notation.

The test system of this data set is L. (L.) major. The settings on record: Old World patients, cutaneous leishmaniasis due to L. (L.) major (MOHEBALI et al., 2007).

For `CCCCCCCCCCCCCCCCOP(=O)([O-])OCC[N+](C)(C)C` [miltefosine, hexadecylphosphocholine], the cure rate is reported as 93%.
